A value given as a limit tells only on which side of the number the result lay.

For one assay, the target named is Carbonic anhydrase 1 (Homo sapiens, UniProt P00915). Kind of assay: Inhibition of recombinant human carbonic anhydrase 1 assessed as inhibition constant preincubated with enzyme for 10 mins by phenol red dye based stopped flow CO2 hydration assay.
Another assay has as its target Carbonic anhydrase 2 (Homo sapiens, UniProt P00918). Kind of assay: Inhibition of recombinant human carbonic anhydrase 2 assessed as inhibition constant preincubated with enzyme for 10 mins by phenol red dye based stopped flow CO2 hydration assay.
For another assay, the target named is Carbonic anhydrase 9 (Homo sapiens, UniProt Q16790). Kind of assay: Inhibition of recombinant human carbonic anhydrase 9 assessed as inhibition constant preincubated with enzyme for 10 mins by phenol red dye based stopped flow CO2 hydration assay.
A further assay addresses Carbonic anhydrase 12 (Homo sapiens, UniProt O43570). As to the kind of experiment: Inhibition of recombinant human carbonic anhydrase 12 assessed as inhibition constant preincubated with enzyme for 10 mins by phenol red dye based stopped flow CO2 hydration assay.

Chain of Carbonic anhydrase 1 (P00915 whole entry): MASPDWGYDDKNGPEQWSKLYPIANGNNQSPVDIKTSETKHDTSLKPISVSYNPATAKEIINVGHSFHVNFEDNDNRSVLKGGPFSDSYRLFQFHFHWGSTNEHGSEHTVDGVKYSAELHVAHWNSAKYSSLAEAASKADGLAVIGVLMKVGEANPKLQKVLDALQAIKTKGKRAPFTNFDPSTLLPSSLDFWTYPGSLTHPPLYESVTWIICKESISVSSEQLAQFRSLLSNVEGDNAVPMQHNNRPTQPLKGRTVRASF
Chain of Carbonic anhydrase 12 (O43570 whole entry): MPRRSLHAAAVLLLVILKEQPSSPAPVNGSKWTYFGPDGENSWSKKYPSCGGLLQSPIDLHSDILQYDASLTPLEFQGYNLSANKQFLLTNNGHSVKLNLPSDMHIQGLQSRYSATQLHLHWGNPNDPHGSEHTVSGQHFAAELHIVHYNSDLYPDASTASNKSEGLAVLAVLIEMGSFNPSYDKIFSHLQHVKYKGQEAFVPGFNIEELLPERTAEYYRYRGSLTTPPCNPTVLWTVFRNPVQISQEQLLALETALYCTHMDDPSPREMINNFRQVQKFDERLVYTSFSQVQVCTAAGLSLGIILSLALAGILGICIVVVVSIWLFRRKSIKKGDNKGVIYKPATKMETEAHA

With `COc1ccc(/C=C/C(=O)Nc2ccc3oc(=O)ccc3c2)cc1OC`, the inhibition constant Ki at Carbonic anhydrase 1 is over 10 µM; on Carbonic anhydrase 2, over 10 µM; on Carbonic anhydrase 9, 321 nM; on Carbonic anhydrase 12, 15.5 nM.
Take `COc1ccc(/C=C/C(=O)Nc2ccc3c(C)cc(=O)oc3c2)c(F)c1`: the Ki on Carbonic anhydrase 1 is over 10 µM; on Carbonic anhydrase 2, over 10 µM; on Carbonic anhydrase 9, 817 nM; at Carbonic anhydrase 12, 847 nM.
As for `COc1cc(/C=C/C(=O)Nc2ccc3c(C)cc(=O)oc3c2)cc(OC)c1OC`, the Ki on Carbonic anhydrase 1 is over 10 µM; at Carbonic anhydrase 2, over 10 µM; on Carbonic anhydrase 9, 647 nM; on Carbonic anhydrase 12 it was 631 nM.
Turning to `O=C(/C=C/c1ccc(C(F)(F)F)cc1)Nc1ccc2oc(=O)ccc2c1`, the Ki at Carbonic anhydrase 1 was over 10 µM; at Carbonic anhydrase 2, over 10 µM; at Carbonic anhydrase 9 it was 91.1 nM; on Carbonic anhydrase 12, 236 nM.
For the molecule `COc1ccc(/C=C/C(=O)Nc2ccc3oc(=O)ccc3c2)c(OC)c1`, the Ki is over 10 µM at Carbonic anhydrase 1, over 10 µM on Carbonic anhydrase 2, 87.4 nM at Carbonic anhydrase 9 and 446 nM on Carbonic anhydrase 12.
`O=C(/C=C/c1cc(Cl)cc(Cl)c1)Nc1ccc2oc(=O)ccc2c1`: the Ki at Carbonic anhydrase 1 was over 10 µM; on Carbonic anhydrase 2, over 10 µM; on Carbonic anhydrase 9, 305 nM; at Carbonic anhydrase 12, 701 nM.
Regarding `N#Cc1ccc(/C=C/C(=O)Nc2ccc3c(c2)C=CS(=O)(=O)O3)cc1`, the Ki was over 10 µM on Carbonic anhydrase 1, over 10 µM on Carbonic anhydrase 2, 39.8 nM on Carbonic anhydrase 9 and 520 nM at Carbonic anhydrase 12.
Regarding `Cc1cc(=O)oc2cc(NC(=O)/C=C/c3ccccc3)ccc12`, the Ki at Carbonic anhydrase 1 is over 10 µM; on Carbonic anhydrase 2 it was over 10 µM; on Carbonic anhydrase 9, 514 nM; at Carbonic anhydrase 12, 649 nM.
For the molecule `Cc1cc(=O)oc2cc(NC(=O)/C=C/c3cccc(F)c3)ccc12`, the Ki on Carbonic anhydrase 1 was over 10 µM; at Carbonic anhydrase 2, over 10 µM; on Carbonic anhydrase 9, 639 nM; at Carbonic anhydrase 12, 539 nM.
For `O=C(/C=C/c1ccc(F)c(F)c1)Nc1ccc2c(c1)C=CS(=O)(=O)O2`, the inhibition constant Ki at Carbonic anhydrase 1 was over 10 µM; on Carbonic anhydrase 2, over 10 µM; at Carbonic anhydrase 9 it was 720 nM; at Carbonic anhydrase 12 it was 568 nM.
Turning to `O=C(/C=C/c1cccc(C(F)(F)F)c1)Nc1ccc2oc(=O)ccc2c1`, the Ki at Carbonic anhydrase 1 is over 10 µM; on Carbonic anhydrase 2, over 10 µM; on Carbonic anhydrase 9, 88 nM; at Carbonic anhydrase 12, 221 nM.
Regarding `O=C(/C=C/c1ccc(F)cc1)Nc1ccc2c(c1)C=CS(=O)(=O)O2`, the Ki on Carbonic anhydrase 1 is over 10 µM; at Carbonic anhydrase 2, over 10 µM; at Carbonic anhydrase 9 it was 517 nM; at Carbonic anhydrase 12, 506 nM.
For `O=C(/C=C/c1ccc(F)c(F)c1)Nc1ccc2oc(=O)ccc2c1`, the Ki at Carbonic anhydrase 1 was over 10 µM; at Carbonic anhydrase 2, over 10 µM; on Carbonic anhydrase 9, 340 nM; at Carbonic anhydrase 12 it was 206 nM.
As for `Cc1cc(=O)oc2cc(NC(=O)/C=C/c3ccc(F)cc3)ccc12`, the Ki is over 10 µM on Carbonic anhydrase 1, over 10 µM on Carbonic anhydrase 2, 682 nM on Carbonic anhydrase 9 and 604 nM on Carbonic anhydrase 12.
For `N#Cc1ccc(/C=C/C(=O)Nc2ccc3oc(=O)ccc3c2)cc1`, the Ki was over 10 µM at Carbonic anhydrase 1, over 10 µM at Carbonic anhydrase 2, 881 nM on Carbonic anhydrase 9 and 760 nM at Carbonic anhydrase 12.
For the molecule `COc1cc(/C=C/C(=O)Nc2ccc3oc(=O)ccc3c2)cc(OC)c1OC`, the Ki was over 10 µM at Carbonic anhydrase 1, over 10 µM on Carbonic anhydrase 2, 157 nM at Carbonic anhydrase 9 and 149 nM on Carbonic anhydrase 12.
Consider `COc1ccc(/C=C/C(=O)Nc2ccc3oc(=O)ccc3c2)c(F)c1`, for which the Ki on Carbonic anhydrase 1 is over 10 µM; on Carbonic anhydrase 2 it was over 10 µM; at Carbonic anhydrase 9, 472 nM; at Carbonic anhydrase 12, 137 nM.
On to `O=C(/C=C/c1cccc(F)c1)Nc1ccc2oc(=O)ccc2c1`, for which the Ki on Carbonic anhydrase 1 was over 10 µM; on Carbonic anhydrase 2, over 10 µM; on Carbonic anhydrase 9, 43 nM; on Carbonic anhydrase 12, 411 nM.
On to `O=C(/C=C/c1ccccc1OC(F)F)Nc1ccc2oc(=O)ccc2c1`, for which the Ki is over 10 µM at Carbonic anhydrase 1, over 10 µM on Carbonic anhydrase 2, 384 nM at Carbonic anhydrase 9 and 394 nM on Carbonic anhydrase 12.
For the molecule `NS(=O)(=O)c1ccc(NC(=O)/C=C/c2ccccc2OC(F)F)cc1`, at Carbonic anhydrase 9, the Ki is 6 nM.
Turning to `COc1ccc(/C=C/C(=O)Nc2ccc3c(c2)C=CS(=O)(=O)O3)c(F)c1`, the Ki is over 10 µM at Carbonic anhydrase 1, over 10 µM at Carbonic anhydrase 2, 80.4 nM at Carbonic anhydrase 9 and 399 nM on Carbonic anhydrase 12.
As for `Cc1cc(=O)oc2cc(NC(=O)/C=C/c3ccc(C#N)cc3)ccc12`, the Ki at Carbonic anhydrase 1 was over 10 µM; on Carbonic anhydrase 2, over 10 µM; at Carbonic anhydrase 9 it was 854 nM; at Carbonic anhydrase 12, 575 nM.
Consider `COc1ccc(/C=C/C(=O)Nc2ccc3c(C)cc(=O)oc3c2)cc1OC`, for which the Ki is over 10 µM on Carbonic anhydrase 1, over 10 µM on Carbonic anhydrase 2, 3040 nM on Carbonic anhydrase 9 and 644 nM on Carbonic anhydrase 12.
As for `O=C(/C=C/c1cccc(C(F)(F)F)c1)Nc1ccc2c(c1)C=CS(=O)(=O)O2`, the Ki is over 10 µM on Carbonic anhydrase 1, over 10 µM at Carbonic anhydrase 2, 65.4 nM at Carbonic anhydrase 9 and 480 nM at Carbonic anhydrase 12.
For `COc1cc(/C=C/C(=O)Nc2ccc3c(c2)C=CS(=O)(=O)O3)cc(OC)c1OC`, the inhibitory constant (Ki) at Carbonic anhydrase 1 is over 10 µM; on Carbonic anhydrase 2, over 10 µM; at Carbonic anhydrase 9, 536 nM; at Carbonic anhydrase 12, 208 nM.
As for `O=C(/C=C/c1cccc([N+](=O)[O-])c1)Nc1ccc2oc(=O)ccc2c1`, the Ki at Carbonic anhydrase 1 was over 10 µM; on Carbonic anhydrase 2, over 10 µM; on Carbonic anhydrase 9, 7210 nM; on Carbonic anhydrase 12 it was 557 nM.
Regarding `O=C(/C=C/c1ccccc1OC(F)F)Nc1ccc2c(c1)C=CS(=O)(=O)O2`, the Ki on Carbonic anhydrase 1 was over 10 µM; at Carbonic anhydrase 2 it was over 10 µM; at Carbonic anhydrase 9, 92.8 nM; on Carbonic anhydrase 12, 349 nM.
As to `O=C(/C=C/c1ccc(F)cc1)Nc1ccc2oc(=O)ccc2c1`, the Ki at Carbonic anhydrase 1 is over 10 µM; at Carbonic anhydrase 2, over 10 µM; on Carbonic anhydrase 9 it was 40.9 nM; on Carbonic anhydrase 12 it was 265 nM.
For the molecule `Cc1cc(=O)oc2cc(NC(=O)/C=C/c3ccc(F)c(F)c3)ccc12`, the Ki was over 10 µM on Carbonic anhydrase 1, over 10 µM at Carbonic anhydrase 2, 773 nM on Carbonic anhydrase 9 and 699 nM at Carbonic anhydrase 12.
Regarding `O=C(/C=C/c1ccc(Cl)cc1)Nc1ccc2oc(=O)ccc2c1`, the Ki at Carbonic anhydrase 1 is over 10 µM; on Carbonic anhydrase 2 it was over 10 µM; on Carbonic anhydrase 9, 88.9 nM; at Carbonic anhydrase 12 it was 343 nM.
As for `COc1ccc(/C=C/C(=O)Nc2ccc3oc(=O)ccc3c2)cc1`, the inhibition constant Ki on Carbonic anhydrase 1 is over 10 µM; at Carbonic anhydrase 2, over 10 µM; on Carbonic anhydrase 9 it was 884 nM; on Carbonic anhydrase 12 it was 427 nM.
`O=C(/C=C/c1ccccc1)Nc1ccc2oc(=O)ccc2c1`: the Ki on Carbonic anhydrase 1 is over 10 µM; at Carbonic anhydrase 2, over 10 µM; at Carbonic anhydrase 9 it was 131 nM; on Carbonic anhydrase 12, 829 nM.
With `Cc1cc(=O)oc2cc(NC(=O)/C=C/c3ccccc3OC(F)F)ccc12`, the Ki on Carbonic anhydrase 1 is over 10 µM; on Carbonic anhydrase 2, over 10 µM; at Carbonic anhydrase 9 it was 488 nM; on Carbonic anhydrase 12 it was 567 nM.
For the molecule `Cc1cc(=O)oc2cc(NC(=O)NS(=O)(=O)c3ccc(F)cc3)ccc12`, the Ki is 20.2 nM at Carbonic anhydrase 9 and 1.8 nM at Carbonic anhydrase 12.

Usually Ki stands for a measure of affinity in units of concentration, obtained from inhibition or displacement.
